Test results from patent US9428460B2, “N-[4-(quinolin-4-yloxy)cyclohexyl(methyl)](hetero)arylcarboxamides as androgen receptor antagonists, production and use thereof as medicinal products” (BAYER PHARMA AKTIENGESELLSCHAFT, priority 2012, dated 2016).

What was measured:
[1] = biological target: human androgen receptor (full length, wild-type form) (Homo sapiens (Human), UniProt P10275); assay: Transactivation assay for the wild-type androgen receptor (PC-3 cells, MMTV-luciferase reporter); assay type: cell-based; conditions: in the presence of R1881, 16 hours
Excerpt: For determining the androgen receptor-dependent transcription, a cellular assay system was used, consisting of PC-3 cells (Kaighn et al., Invest. Urol. 17: 16-23, 1979), which express the human androgen receptor stably and recombinantly (full length, wild-type form, see Swiss-Prot Acc. No. P10275, Entry Version 159, Sequence Version 2). In addition, these PC3 cells contain a stably integrated reporter gene plasmid, which is based on the commercially available plasmid pGL4.14 (#E6691, Promega Corporation, Madison, Wis., USA) and contains the luciferase gene from the American firefly (Photinus pyralis) under the control of the MMTV promoter (Cato et al., EMBO J. 6: 363-368, 1987). These cells were propagated in routine cell culture at 37° C. and 5% CO2 in a medium containing 90% RPMI 1640 (Invitrogen GmbH, Darmstadt, Germany), 100 U penicillin, 100 μg/ml streptomycin (Invitrogen), 4 mM L-glutamine (Invitrogen), 10% fetal calf serum (FCS Serum Gold, PAA Laboratories GmbH, Cölbe, Germany), 600 μg/ml Geneticin (G418-sulphate, Invitrogen) and 10 μg/ml puromycin (Sigma Aldrich GmbH, Germany).
For carrying out the transactivation assays, approx. 1000 cells per well were plated out in a 384-well cell culture plate in a medium that contained activated charcoal-treated calf serum (FCS Serum Gold, PAA Laboratories) at a concentration of 5% (v/v). The test substances were added in a concentration series from 5.12×10^−12 to 1×10^−5 M in the presence of […] R1881 (methyltrienolone). The test plates were incubated overnight at 37° C. and 5% CO2. After 16 hours, 15 μl of Steady Glo Lysis and Detection reagent (E2550, Promega Corporation, Madison, Wis., USA) was added per well and the luminescence was read in a Topcount Luminometer (PerkinElmer, Waltham, Mass., USA) for 4 seconds per well. The luminescence values obtained were normalized, wherein 100% corresponded to the effect of the unstimulated control (without R1881), and 0% corresponded to the effect of the stimulated control (R1881 plus DMSO instead of test substance). The IC50 value was determined by regression analysis based on a four-parameter equation (minimum, maximum, IC50, Hill coefficient; Y=Max+(Min−Max)/(1+(X/IC50)^Hill)).

LNCaP cells = assay: Proliferation assay with LNCaP cells; assay type: cell-based; conditions: Homo sapiens, 168 h, in the presence of 1×10^−10 M R1881, seven days, AlamarBlue, read-out: IC50 LNCaP cell proliferation
Description: LNCaP cells (Horoszewicz et al., in “Models for Prostate Cancer” (ed. G. P. Murphy), Alan R. Liss, New York 1981, p. 115-132; Horoszewicz et al., Cancer Res. 43: 1809-1818, 1983) were plated out at a density of 2000 cells per well of a 96-well cell culture plate in RMPI 1640 medium (F1275, Biochrom AG), which contained activated charcoal-treated calf serum (FCS Serum Gold, PAA Laboratories) at a concentration of 5% (v/v). Three days later the cells were treated with the test substances in concentrations from 1×10^−8 to 1×10^−10 M in the presence of 1×10^−10 M R1881. Cell proliferation was determined seven days later after incubation for 2 hours with AlamarBlue (DAL1100, Invitrogen) (Nakayama et al., J Immunol Methods, 204(2): 205-8, 1997). The fluorescence values obtained were normalized, wherein 100% corresponded to the effect of the unstimulated control (without R1881), and 0% corresponded to the effect of the stimulated control (R1881 plus DMSO instead of test substance). The IC50 value was determined by regression analysis based on a four-parameter equation (minimum, maximum, IC50, Hill coefficient; Y=Max+(Min−Max)/(1+(X/IC50)^Hill)).

human androgen receptor (full length, wild-type form), sequence (P10275 whole entry): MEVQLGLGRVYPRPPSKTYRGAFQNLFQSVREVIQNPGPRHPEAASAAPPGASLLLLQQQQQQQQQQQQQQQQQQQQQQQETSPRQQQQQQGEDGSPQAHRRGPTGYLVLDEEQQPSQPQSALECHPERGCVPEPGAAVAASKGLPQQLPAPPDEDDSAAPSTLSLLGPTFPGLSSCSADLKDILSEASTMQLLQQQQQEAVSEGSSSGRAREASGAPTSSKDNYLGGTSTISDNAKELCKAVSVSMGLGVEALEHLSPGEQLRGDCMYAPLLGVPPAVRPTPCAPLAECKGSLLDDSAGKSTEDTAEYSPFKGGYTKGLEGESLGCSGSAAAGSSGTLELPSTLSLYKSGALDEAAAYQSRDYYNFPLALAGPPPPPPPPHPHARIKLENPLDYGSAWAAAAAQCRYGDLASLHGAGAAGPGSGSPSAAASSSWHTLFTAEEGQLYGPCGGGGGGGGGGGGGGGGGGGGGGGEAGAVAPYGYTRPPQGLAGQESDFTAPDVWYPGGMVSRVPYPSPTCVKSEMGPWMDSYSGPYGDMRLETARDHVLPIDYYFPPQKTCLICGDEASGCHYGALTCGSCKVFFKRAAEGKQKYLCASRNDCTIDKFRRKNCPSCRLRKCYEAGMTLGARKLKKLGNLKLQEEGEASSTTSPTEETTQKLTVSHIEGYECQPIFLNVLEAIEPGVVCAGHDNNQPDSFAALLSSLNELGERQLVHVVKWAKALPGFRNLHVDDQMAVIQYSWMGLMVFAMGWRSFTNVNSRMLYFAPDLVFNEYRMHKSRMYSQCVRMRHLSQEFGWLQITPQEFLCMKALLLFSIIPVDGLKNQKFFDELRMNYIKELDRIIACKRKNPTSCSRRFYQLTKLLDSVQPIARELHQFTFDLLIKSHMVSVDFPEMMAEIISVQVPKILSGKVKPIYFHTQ

| Structure (SMILES) | IC50 [1] [µM] | IC50 (LNCaP cells) [µM] |
| --- | --- | --- |
| N#Cc1ccc(C(=O)N[C@H]2CC[C@H](Oc3ccnc4c(Br)cccc34)CC2)cc1 [Example 15, N-{trans-4-[(8-bromoquinolin-4-yl)oxy]cyclohexyl}-4-cyanobenzamide] | 0.261 | 0.19 |
| N#Cc1cccc2c(O[C@H]3CC[C@H](NC(=O)c4ccc(Cl)c(F)c4)CC3)ccnc12 [Example 29, 4-chloro-N-{trans-4-[(8-cyanoquinolin-4-yl)oxy]cyclohexyl}-3-fluorobenzamide] | 0.061 | 0.029 |
| O=C(N[C@H]1CC[C@H](Oc2ccnc3c(Br)cccc23)CC1)c1ccc(C(F)(F)F)c(F)c1 [Example 16, N-{trans-4-[(8-bromoquinolin-4-yl)oxy]cyclohexyl}-3-fluoro-4-(trifluoromethyl)benzamide] | 0.463 | – |
| O=C(NC[C@H]1CC[C@H](Oc2ccnc3c(Br)cccc23)CC1)c1ccon1 [Example 21, N-({trans-4-[(8-bromoquinolin-4-yl)oxy]cyclohexyl}methyl)isoxazole-3-carboxamide] | 0.63 | – |
| N#Cc1cccc2c(O[C@H]3CC[C@H](NC(=O)c4ccc(F)cc4)CC3)ccnc12 [Example 25, N-{trans-4-[(8-cyanoquinolin-4-yl)oxy]cyclohexyl}-4-fluorobenzamide] | 0.14 | 0.233 |
| O=C(N[C@H]1CC[C@H](Oc2ccnc3c(Br)cccc23)CC1)c1ccc(F)cc1 [Example 17, N-{trans-4-[(8-bromoquinolin-4-yl)oxy]cyclohexyl}-4-fluorobenzamide] | 0.477 | – |
| Cc1cc(C(=O)NC[C@H]2CC[C@H](Oc3ccnc4c(C#N)cccc34)CC2)no1 [Example 32, N-({trans-4-[(8-cyanoquinolin-4-yl)oxy]cyclohexyl}methyl)-5-methylisoxazole-3-carboxamide] | 0.65 | 0.56 |
| N#Cc1cccc2c(O[C@H]3CC[C@H](CNC(=O)c4ccon4)CC3)ccnc12 [Example 31, N-({trans-4-[(8-cyanoquinolin-4-yl)oxy]cyclohexyl}methyl)isoxazole-3-carboxamide] | 0.72 | 0.73 |
| O=C(NC[C@H]1CC[C@H](Oc2ccnc3c(F)cccc23)CC1)c1ccno1 [Example 5, N-({trans-4-[(8-fluoroquinolin-4-yl)oxy]cyclohexyl}methyl)-isoxazole-5-carboxamide] | 0.46 | 0.39 |
| Cc1ccc(C(=O)N[C@H]2CC[C@H](Oc3ccnc4c(C#N)cccc34)CC2)cc1F [Example 28, N-{trans-4-[(8-cyanoquinolin-4-yl)oxy]cyclohexyl}-3-fluoro-4-methylbenzamide] | 0.045 | 0.051 |
| O=C(N[C@H]1CC[C@H](Oc2ccnc3ccccc23)CC1)c1ccc(F)c(F)c1 [Example 3, N-[trans-4-(4-quinolyloxy)cyclohexyl]-3,4-difluorobenzamide] | 0.045 | 0.099 |
| Cc1cc(C(=O)N[C@H]2CC[C@H](Oc3ccnc4c(Br)cccc34)CC2)no1 [Example 2, N-{trans-4-[(8-bromoquinolin-4-yl)oxy]cyclohexyl}-5-methylisoxazole-3-carboxamide] | 0.02 | – |
| N#Cc1ccc(C(=O)NC[C@H]2CC[C@H](Oc3ccnc4ccccc34)CC2)cc1 [Example 22, N-{[trans-4-(4-quinolyloxy)cyclohexyl]methyl}-4-cyanobenzamide] | 0.33 | 0.087 |
| O=C(NC[C@H]1CC[C@H](Oc2ccnc3c(F)cccc23)CC1)c1ccc(F)cc1 [Example 1, N-({trans-4-[(8-fluoroquinolin-4-yl)oxy]cyclohexyl}methyl)-4-fluorobenzamide] | 0.24 | 0.17 |
| Cc1nocc1C(=O)NC[C@H]1CC[C@H](Oc2ccnc3c(F)cccc23)CC1 [Example 4, N-({trans-4-[(8-fluoroquinolin-4-yl)oxy]cyclohexyl}methyl)-3-methylisoxazole-4-carboxamide] | 0.21 | 0.25 |
| O=C(NC[C@H]1CC[C@H](Oc2ccnc3c(F)cccc23)CC1)c1cc[nH]n1 [Example 8, N-({trans-4-[(8-fluoroquinolin-4-yl)oxy]cyclohexyl}methyl)-1H-pyrazole-3-carboxamide] | 0.42 | 1.12 |
| O=C(N[C@H]1CC[C@H](Oc2ccnc3c(Br)cccc23)CC1)c1cccc(F)c1 [Example 12, N-{trans-4-[(8-bromoquinolin-4-yl)oxy]cyclohexyl}-3-fluorobenzamide] | 0.093 | – |
| O=C(NC[C@H]1CC[C@H](Oc2ccnc3c(F)cccc23)CC1)c1ccon1 [Example 6, N-({trans-4-[(8-fluoroquinolin-4-yl)oxy]cyclohexyl}methyl)isoxazole-3-carboxamide] | 0.74 | 0.021 |
| N#Cc1cccc2c(O[C@H]3CC[C@H](NC(=O)c4ccc(F)c(Cl)c4)CC3)ccnc12 [Example 27, 3-chloro-N-{trans-4-[(8-cyanoquinolin-4-yl)oxy]cyclohexyl}-4-fluorobenzamide] | 0.067 | – |
| Cc1cc(C(=O)NC[C@H]2CC[C@H](Oc3ccnc4c(Br)cccc34)CC2)no1 [Example 20, N-({trans-4-[(8-bromoquinolin-4-yl)oxy]cyclohexyl}methyl)-5-methylisoxazole-3-carboxamide] | 0.69 | – |
| Cc1cc(C(=O)NC[C@H]2CC[C@H](Oc3ccnc4c(F)cccc34)CC2)no1 [Example 7, N-({trans-4-[(8-fluoroquinolin-4-yl)oxy]cyclohexyl}methyl)-5-methylisoxazole-3-carboxamide] | 0.48 | 0.097 |
| O=C(N[C@H]1CC[C@H](Oc2ccnc3c(Br)cccc23)CC1)c1ccc(F)c(Cl)c1 [Example 18, N-{trans-4-[(8-bromoquinolin-4-yl)oxy]cyclohexyl}-3-chloro-4-fluorobenzamide] | 0.19 | – |
| O=C(N[C@H]1CC[C@H](Oc2ccnc3c(Br)cccc23)CC1)c1ccc(F)c(F)c1 [Example 13, N-{trans-4-[(8-bromoquinolin-4-yl)oxy]cyclohexyl}-3,4-difluorobenzamide] | 0.17 | – |
| Cc1cc(C(=O)N[C@H]2CC[C@H](Oc3ccnc4c(C#N)cccc34)CC2)no1 [Example 26, N-{trans-4-[(8-cyanoquinolin-4-yl)oxy]cyclohexyl}-5-methylisoxazole-3-carboxamide] | 0.018 | – |
| N#Cc1cccc2c(O[C@H]3CC[C@H](NC(=O)c4cc(F)cc(F)c4)CC3)ccnc12 [Example 30, N-{trans-4-[(8-cyanoquinolin-4-yl)oxy]cyclohexyl}-3,5-difluorobenzamide] | 0.039 | 0.03 |
| Cc1ccc(C(=O)N[C@H]2CC[C@H](Oc3ccnc4c(Br)cccc34)CC2)cc1F [Example 14, N-{trans-4-[(8-bromoquinolin-4-yl)oxy]cyclohexyl}-3-fluoro-4-methylbenzamide] | 0.068 | – |
